Assay results reported in patent publication US20250319069A1, “METHODS FOR TREATING DEPRESSIVE STATES” (BioXcel Therapeutics, Inc., priority 2021, published 2025).

Key:
[1] = tested on: Yohimbine challenged rats; assay: Elevated plus maze test in Yohimbine challenged rats (Example 2); assay type: in vivo, male Wistar rats; details: for In the open arms: Percentage change compared to Yohimbine administered group, Number of entries / In the open arms: Percentage change compared to Yohimbine administered group, Time spent: YOH 2.5 mg/kg; for Number of entries in the open arms (Mean ± SEM) / Time spent in the open arms (Mean ± SEM): rats given YOH 2.5 mg/kg i.p., N=12
Protocol: Treatment with Test Compounds: • As outlined in the table • Vehicle is Saline
After compound administration, the rat was placed on the platform opposite a closed arm. The number of entries and the time spent in each arm were recorded during a 5 min period (deliverables). The animal was considered as entered in arm when it placed its four paws into the arm.
The number of rats processed per day was about 20 in this model. Therefore, the experiment was split in several series.
Analysis of variance (ANOVA) was performed on the result data. Fisher's PLSD was used for
pairwise comparisons and p value <0.05 was considered significant.

rats = assay: Elevated plus-maze test in the rat (Example 1); details: for significance of effect on number of entries, % of entries and time spent in the open arms as compared with vehicle control: Dexmedetomidine 10 μg/kg i.p. (increase), Fluoxetine 32 mg/kg i.p. (decrease), vs Group 1; for anxiolytic-like / anxiogenic-like activity in the Elevated Plus Maze Test (conclusion in words): rat, Dexmedetomidine 10 μg/kg i.p., alone or co-administered
[2] = Dexmedetomidine 10 μg/kg i.p., Fluvoxamine 3 mg/kg i.p., alone or combined (Group 7), diazepam 1 mg/kg i.p.
[3] = DEX 10 μg/kg or diazepam 1 mg/kg i.p.
[4] = DEX 10 μg/kg i.p., DIAZEPAM 1 mg/kg i.p., or YOH + vehicle, 5 min test
[5] = DEX 10 μg/kg or diazepam 1 mg/kg i.p., listed as DEX
[6] = FLUVO 3 mg/kg, alone or with DEX 10 μg/kg
[7] = FLUVO 10 mg/kg, alone or with DEX 10 μg/kg
[8] = FLUVO 3 mg/kg i.p., alone or with DEX 10 μg/kg i.p.
[9] = FLUVO 10 mg/kg i.p., alone or with DEX 10 μg/kg i.p.
[10] = Yohimbine 2.5 mg/kg i.p. + vehicle (Group 2) vs Group 1, p<0.0001

In the case of CN1C(=O)CN=C(c2ccccc2)c2cc(Cl)ccc21 [DIAZEPAM, Diazepam], the “anxiolytic-like effect in Yohimbine administered rats (conclusion in words)” value (shortened to “anxiolytic-like effect”) [1, 2] is reported as “reversed Yohimbine-induced anxiety”, the “In the open arms: Percentage change compared to Yohimbine administered group, Number of entries” value (“In the open arms: Percentage change … of entries” below) [1, 3] is reported as “+262%” and the “In the open arms: Percentage change compared to Yohimbine administered group, Time spent” value (from here on “In the open arms: Percentage change … Time spent”) [1, 3] is reported as “+620%”. The “Number of entries in the open arms (Mean ± SEM)” value (“Number of entries … (Mean ± SEM)” for short) [1, 4] was 6.33 ± 0.28 and the “Time spent in the open arms (Mean ± SEM)” value [1, 4] was 74.98 ± 4.31.

In the case of Cc1cccc([C@H](C)c2cnc[nH]2)c1C [Dexmedetomidine, (+) 4-(S)-[1-(2,3-dimethylphenyl)ethyl]-1H-imidazole], the “anxiolytic-like effect” value [1, 2] is reported as “not statistically significant”, the “In the open arms: Percentage change … of entries” value [1, 3] is reported as “+48%” and the “In the open arms: Percentage change … Time spent” value [1, 3] is reported as “+146%”. For the same compound, the “In the open arms: Percentage change … of entries” value [1, 5] was “+48%”, the “In the open arms: Percentage change … Time spent” value [1, 5] was “+146%” and the “Number of entries … (Mean ± SEM)” value [1, 4] was 2.58 ± 0.26. For the same compound, the “Time spent in the open arms (Mean ± SEM)” value [1, 4] was 25.66 ± 3.84, the “significance of effect on number of entries, % of entries and time spent in the open arms as compared with vehicle control” value (rats) was “not significant” and the “anxiolytic-like / anxiogenic-like activity in the Elevated Plus Maze Test (conclusion in words)” value (rats; Fluoxetine 32 mg/kg i.p.) was “absence of anxiolytic-like activity”.

For CNCCC(Oc1ccc(C(F)(F)F)cc1)c1ccccc1 (stereo not drawn) [Fluoxetine, N-methyl-3-(p-trifluoromethylphenoxy)-3-phenylpropylamine], the “significance of effect on number of entries, % of entries and time spent in the open arms as compared with vehicle control” value (rats) was “not significant”, the “change in total distance travelled in the four arms as compared with vehicle control” value (rats; Fluoxetine 32 mg/kg i.p. alone or with Dexmedetomidine 10 μg/kg, vs vehicle control (Group 1)) was −65% and the “change in total number of entries in the four arms as compared with vehicle control” value (rats; Fluoxetine 32 mg/kg i.p., vs vehicle control (Group 1)) was −57%. For the same compound, the “anxiolytic-like / anxiogenic-like activity in the Elevated Plus Maze Test (conclusion in words)” value (rats; Fluoxetine 32 mg/kg i.p.) was “tended to show anxiogenic like effect”.

With COCCCCC(=NOCCN)c1ccc(C(F)(F)F)cc1 [Fluvoxamine, 5-methoxy-1-[4-(trifluoromethyl)phenyl]-1-pentanone O-(2-aminoethyl) oxime] the “anxiolytic-like effect” value [1, 2] was “not statistically significant”, the “significance of improvement in number of entries in the open arms compared with Yohimbine-administered vehicle group” value ([1]; Fluvoxamine 3 mg/kg i.p. (Group 5)) was “no significant improvement” and the “significance of improvement in number of entries in the open arms compared with Yohimbine-administered vehicle group” value ([1]; Fluvoxamine 10 mg/kg i.p. (Group 6)) was “no significant improvement”. The “anxiolytic-like effect” value ([1]; Fluvoxamine 10 mg/kg i.p., in terms of the time spent in the open arms) was “significant anxiolytic-like effect”, the “In the open arms: Percentage change … of entries” value [1, 6] was “+52%” and the “In the open arms: Percentage change … Time spent” value [1, 6] was “+105%”. The “In the open arms: Percentage change … Time spent” value ([1]; FLUVO 3 mg/kg, alone or with DEX 10 μg/kg, listed as FLUVO) was “+105%”, the “In the open arms: Percentage change … of entries” value [1, 7] was “+76%” and the “In the open arms: Percentage change … Time spent” value [1, 7] was “+232%”. The “In the open arms: Percentage change … Time spent” value ([1]; FLUVO 10 mg/kg, alone or with DEX 10 μg/kg, listed as FLUVO) was “+232%”, the “Number of entries … (Mean ± SEM)” value [1, 8] was 2.67 ± 0.22 and the “Time spent in the open arms (Mean ± SEM)” value [1, 8] was 21.39 ± 2.67. The “Number of entries … (Mean ± SEM)” value [1, 9] was 3.08 ± 0.42 and the “Time spent in the open arms (Mean ± SEM)” value [1, 9] was 34.60 ± 5.24.

For COC(=O)[C@@H]1[C@H]2C[C@H]3c4[nH]c5ccccc5c4CCN3C[C@@H]2CC[C@@H]1O [YOH, Yohimbine], the “change in number of entries to the open arms as compared to vehicle (saline) treated group” value [1, 10] was −63%, the “change in time spent in the open arms as compared to vehicle (saline) treated group” value [1, 10] was −81% and the “Number of entries … (Mean ± SEM)” value [1, 4] was 1.75 ± 0.25. The “Time spent in the open arms (Mean ± SEM)” value [1, 4] was 10.42 ± 1.28.
